Columns and labels:
Type in all cases: in vivo
[1] = test system: Echinochloa crus-galli var. crus-galli; experiment: Test Example 3: herbicidal effect by foliage application, Wagner pot (symbol H); details: application herbicide amount 320 g/ha
Description: (§1) Herbicidal Effect Test by Foliage Application
(§2) After alluvial soil was placed into 1/10000 are of Wagner pot, water was poured and mixed to form a submerged condition having a water depth of 0.1 cm to 0.5 cm. Seeds of Echinochloa crus-galli var. crus-galli, Leptochloa chinensis, Cyperus difformis, and rice were sowed and the pot was placed in the greenhouse of 25° C. to 30° C. to grow the plants. After the plants were grown for 14 days, the emulsion agent of the compound of the present invention prepared in accordance with Formulation Example 2 was diluted with water so as to be a predetermined herbicide amount and the diluted emulsion agent was uniformly applied to a foliage part with a small-size spray. 3 weeks later from the herbicide application, the effect to each plant was investigated in accordance with the criteria of Test Example 1.

Cyperus difformis = experiment: Test Example 3: herbicidal effect by foliage application, Wagner pot (symbol E); details: application herbicide amount 320 g/ha
Description: as §1, §2

Leptochloa chinensis = experiment: Test Example 3: herbicidal effect by foliage application, Wagner pot (symbol D); details: application herbicide amount 320 g/ha
Description: as §1, §2

transplanted rice plant = experiment: Test Example 1: effect on crop, application before weed generation in submerged conditions (symbol a); details: application herbicide amount 320 g/ha
Description: (§3) Herbicidal Activity Test by Application Before Weed Generation in Submerged Conditions
After alluvial soil was placed into 1/10000 are of Wagner pot, water was poured and mixed to form a submerged condition having a water depth of 4 cm. Seeds of Echinochloa oryzacola Vasing., Scirpus juncoides, and Monochoria vaginalis were sowed in a mixed manner in the above pot and thereafter 2.5 leaf stage rice plant seedlings were transplanted thereto. […] The pot was placed in a greenhouse of 25° C. to 30° C. to grow plant. 3 weeks later from the herbicide application, the effect to each plant was investigated in accordance with the following criteria.
(§4) 5 Herbicidal ratio of 90% or more (almost completely withered)
(§5) 4 Herbicidal ratio of 70% or higher and lower than 90%
(§6) 3 Herbicidal ratio of 40% or higher and lower than 70%
(§7) 2 Herbicidal ratio of 20% or higher and lower than 40%
(§8) 1 Herbicidal ratio of 5% or higher and lower than 20%
(§9) 0 Herbicidal ratio of 5% or lower (almost no effect)

[2] = test system: Echinochloa oryzacola Vasing.; experiment: Test Example 1: herbicidal activity, application before weed generation in submerged conditions (symbol A); details: application herbicide amount 320 g/ha
From the text: as §3
(§10) After alluvial soil was placed into 1/10000 are of Wagner pot, water was poured and mixed to form a submerged condition having a water depth of 4 cm. Seeds of Echinochloa oryzacola Vasing., Scirpus juncoides, and Monochoria vaginalis were sowed in a mixed manner in the above pot and thereafter 2.5 leaf stage rice plant seedlings were transplanted thereto. On the day of sowing seeds, the emulsion agent of the compound of the present invention prepared in accordance with Formulation Example 2 was diluted with water so as to be a predetermined herbicide amount and the diluted emulsion agent was applied to the surface of the water. The pot was placed in a greenhouse of 25° C. to 30° C. to grow plant. 3 weeks later from the herbicide application, the effect to each plant was investigated in accordance with the following criteria.
as §4, §5, §6, §7, §8, §9

Scirpus juncoides = experiment: Test Example 1: herbicidal activity, application before weed generation in submerged conditions (symbol B); details: application herbicide amount 320 g/ha
From the text: as §3, §10, §4, §5, §6, §7, §8, §9

[3] = test system: directly sowed rice plant; experiment: Test Example 3: effect on crop by foliage application, Wagner pot (symbol b); details: application herbicide amount 320 g/ha
Description: as §1
After alluvial soil was placed into 1/10000 are of Wagner pot, water was poured and mixed to form a submerged condition having a water depth of 0.1 cm to 0.5 cm. Seeds of Echinochloa crus-galli var. crus-galli, Leptochloa chinensis, Cyperus difformis, and rice were sowed and the pot was placed in the greenhouse of 25° C. to 30° C. to grow the plants.

Monochoria vaginalis = experiment: Test Example 1: herbicidal activity, application before weed generation in submerged conditions (symbol C); details: application herbicide amount 320 g/ha
From the text: as §3, §10, §4, §5, §6, §7, §8, §9

Alopecurus myosuroides = experiment: Test Example 5: herbicidal effect by foliage application, plastic box (symbol J); details: 320 g/ha, 3 weeks after application
From the text: as §1
(§11) Sterilized diluvial soil was placed in a plastic box having a length of 21 cm, a width of 13 cm, and a depth of 7 cm. Each of the seeds of Digitaria ciliaris, Setaria viridis, Echinochloa crus-galli var. crus-galli, Avena fatua, Alopecurus myosuroides, Lolium multiflorum Lam., Apera spica-venti, Abutilon theophrasti, Amaranthus retroflexus, Chenopodium album, Stellaria media, Galium spurium, Veronica persica, corn, soybean, rice plant, wheat, beet, and rapeseed was sowed in a spot-like manner and was covered with the soil of a thickness of about 1.5 cm. Thereafter, the plants were grown in the greenhouse of 25° C. to 30° C. After the plants were grown for 14 days, the emulsion agent of the compound of the present invention prepared in accordance with Formulation Example 2 was diluted with water so as to be a predetermined herbicide amount and the diluted emulsion agent was uniformly applied to a foliage part with a small-size spray. 3 weeks later from the herbicide application, the effect to each plant was investigated in accordance with the criteria of Test Example 1.

Stellaria media = experiment: Test Example 5: herbicidal effect by foliage application, plastic box (symbol P); details: 320 g/ha, 3 weeks after application
From the text: as §1, §11

rapeseed = experiment: Test Example 5: effect on crop by foliage application, plastic box (symbol g); details: 320 g/ha, 3 weeks after application
From the text: as §1
(§12) Sterilized diluvial soil was placed in a plastic box having a length of 21 cm, a width of 13 cm, and a depth of 7 cm. Each of the seeds of Digitaria ciliaris, Setaria viridis, Echinochloa crus-galli var. crus-galli, Avena fatua, Alopecurus myosuroides, Lolium multiflorum Lam., Apera spica-venti, Abutilon theophrasti, Amaranthus retroflexus, Chenopodium album, Stellaria media, Galium spurium, Veronica persica, corn, soybean, rice plant, wheat, beet, and rapeseed was sowed in a spot-like manner and was covered with the soil of a thickness of about 1.5 cm. Thereafter, the plants were grown in the greenhouse of 25° C. to 30° C.

[4] = test system: Echinochloa crus-galli var. crus-galli; experiment: Test Example 5: herbicidal effect by foliage application, plastic box (symbol H); details: 320 g/ha, 3 weeks after application
From the text: as §1, §11

Apera spica-venti = experiment: Test Example 5: herbicidal effect by foliage application, plastic box (symbol L); details: 320 g/ha, 3 weeks after application
From the text: as §1, §11

Digitaria ciliaris = experiment: Test Example 5: herbicidal effect by foliage application, plastic box (symbol F); details: 320 g/ha, 3 weeks after application
From the text: as §1, §11

Avena fatua = experiment: Test Example 5: herbicidal effect by foliage application, plastic box (symbol I); details: 320 g/ha, 3 weeks after application
From the text: as §1, §11

Amaranthus retroflexus = experiment: Test Example 5: herbicidal effect by foliage application, plastic box (symbol N); details: 320 g/ha, 3 weeks after application
From the text: as §1, §11

Chenopodium album = experiment: Test Example 5: herbicidal effect by foliage application, plastic box (symbol O); details: 320 g/ha, 3 weeks after application
From the text: as §1, §11

Setaria viridis = experiment: Test Example 5: herbicidal effect by foliage application, plastic box (symbol G); details: 320 g/ha, 3 weeks after application
From the text: as §1, §11

rice plant = experiment: Test Example 5: effect on crop by foliage application, plastic box (symbol b); details: 320 g/ha, 3 weeks after application
From the text: as §1, §12

soybean = experiment: Test Example 5: effect on crop by foliage application, plastic box (symbol d); details: 320 g/ha, 3 weeks after application
From the text: as §1, §12

beet = experiment: Test Example 5: effect on crop by foliage application, plastic box (symbol f); details: 320 g/ha, 3 weeks after application
From the text: as §1, §12

corn = experiment: Test Example 5: effect on crop by foliage application, plastic box (symbol c); details: 320 g/ha, 3 weeks after application
From the text: as §1, §12

Abutilon theophrasti = experiment: Test Example 5: herbicidal effect by foliage application, plastic box (symbol M); details: 320 g/ha, 3 weeks after application
From the text: as §1, §11

wheat = experiment: Test Example 5: effect on crop by foliage application, plastic box (symbol e); details: 320 g/ha, 3 weeks after application
From the text: as §1, §12

Veronica persica = experiment: Test Example 5: herbicidal effect by foliage application, plastic box (symbol R); details: 320 g/ha, 3 weeks after application
From the text: as §1, §11

Lolium multiflorum Lam. = experiment: Test Example 5: herbicidal effect by foliage application, plastic box (symbol K); details: 320 g/ha, 3 weeks after application
From the text: as §1, §11

| SMILES | herbicidal effect on H (Echinochloa crus-galli var. crus-galli), grade 0-5 [1] | herbicidal effect on E, grade 0-5 (Cyperus difformis) | herbicidal effect on D (Leptochloa chinensis), grade 0-5 (Leptochloa chinensis) | effect on crop b (directly sowed rice plant), grade 0-5 [3] | J: Alopecurus myosuroides, herbicidal effect grade (Alopecurus myosuroides) | P: Stellaria media, herbicidal effect grade (Stellaria media) | g: rapeseed, effect on crop grade (rapeseed) | H: Echinochloa crus-galli var. crus-galli, herbicidal effect grade [4] | L: Apera spica-venti, herbicidal effect grade (Apera spica-venti) | F: Digitaria ciliaris, herbicidal effect grade (Digitaria ciliaris) | I: Avena fatua, herbicidal effect grade (Avena fatua) | N: Amaranthus retroflexus, herbicidal effect grade (Amaranthus retroflexus) | O: Chenopodium album, herbicidal effect grade (Chenopodium album) | G: Setaria viridis, herbicidal effect grade (Setaria viridis) | b: directly sowed rice plant, effect on crop grade (rice plant) | d: soybean, effect on crop grade (soybean) | f: beet, effect on crop grade (beet) | c: corn, effect on crop grade (corn) | M: Abutilon theophrasti, herbicidal effect grade (Abutilon theophrasti) | e: wheat, effect on crop grade (wheat) | other results |
| --- | --- | --- | --- | --- | --- | --- | --- | --- | --- | --- | --- | --- | --- | --- | --- | --- | --- | --- | --- | --- | --- |
| CC(=O)CC1CC(O)=C(c2c(C)cc(C=Cc3ccccc3)cc2C)C1=O (centres unmarked) [7-023] | 0 (Herbicidal ratio of 5% or lower (almost no effect)) | 0 (Herbicidal ratio of 5% or lower (almost no effect)) | 5 (Herbicidal ratio of 90% or more (almost completely withered)) | 0 (Herbicidal ratio of 5% or lower (almost no effect)) | – | – | – | – | – | – | – | – | – | – | – | – | – | – | – | – | Effect grade on crop, a: transplanted rice plant (transplanted rice plant): 1 (Herbicidal ratio of 5% or higher and lower than 20%); Herbicidal effect grade, A: Echinochloa oryzacola Vasing. [2]: 2 (Herbicidal ratio of 20% or higher and lower than 40%); Herbicidal effect grade, B: Scirpus juncoides (Scirpus juncoides): 0 (Herbicidal ratio of 5% or lower (almost no effect)); Herbicidal effect grade, C: Monochoria vaginalis (Monochoria vaginalis): 0 (Herbicidal ratio of 5% or lower (almost no effect)) |
| CON=C(C)CC1CC(O)=C(c2c(C)cc(NC(=O)OC(C)(C)C)cc2C)C1=O (mixture of isomers) [6-033] | 0 (Herbicidal ratio of 5% or lower (almost no effect)) | 3 (Herbicidal ratio of 40% or higher and lower than 70%) | 0 (Herbicidal ratio of 5% or lower (almost no effect)) | 0 (Herbicidal ratio of 5% or lower (almost no effect)) | 0 (Herbicidal ratio of 5% or lower (almost no effect)) | 0 (Herbicidal ratio of 5% or lower (almost no effect)) | 1 (Herbicidal ratio of 5% or higher and lower than 20%) | 1 (Herbicidal ratio of 5% or higher and lower than 20%) | 0 (Herbicidal ratio of 5% or lower (almost no effect)) | 0 (Herbicidal ratio of 5% or lower (almost no effect)) | 3 (Herbicidal ratio of 40% or higher and lower than 70%) | 0 (Herbicidal ratio of 5% or lower (almost no effect)) | 0 (Herbicidal ratio of 5% or lower (almost no effect)) | 0 (Herbicidal ratio of 5% or lower (almost no effect)) | 3 (Herbicidal ratio of 40% or higher and lower than 70%) | 0 (Herbicidal ratio of 5% or lower (almost no effect)) | 0 (Herbicidal ratio of 5% or lower (almost no effect)) | 3 (Herbicidal ratio of 40% or higher and lower than 70%) | 0 (Herbicidal ratio of 5% or lower (almost no effect)) | 0 (Herbicidal ratio of 5% or lower (almost no effect)) | R: Veronica persica, herbicidal effect grade (Veronica persica): 0 (Herbicidal ratio of 5% or lower (almost no effect)) |
| CCC(C(C)=O)(C(=O)OC)C1CC(O)=C(c2c(C)cc(C)cc2C)C1=O (centres unmarked) [2-023] | – | – | – | – | 0 (Herbicidal ratio of 5% or lower (almost no effect)) | 0 (Herbicidal ratio of 5% or lower (almost no effect)) | 0 (Herbicidal ratio of 5% or lower (almost no effect)) | 1 (Herbicidal ratio of 5% or higher and lower than 20%) | 0 (Herbicidal ratio of 5% or lower (almost no effect)) | 0 (Herbicidal ratio of 5% or lower (almost no effect)) | 0 (Herbicidal ratio of 5% or lower (almost no effect)) | 0 (Herbicidal ratio of 5% or lower (almost no effect)) | 0 (Herbicidal ratio of 5% or lower (almost no effect)) | 0 (Herbicidal ratio of 5% or lower (almost no effect)) | 3 (Herbicidal ratio of 40% or higher and lower than 70%) | 0 (Herbicidal ratio of 5% or lower (almost no effect)) | 0 (Herbicidal ratio of 5% or lower (almost no effect)) | 0 (Herbicidal ratio of 5% or lower (almost no effect)) | 0 (Herbicidal ratio of 5% or lower (almost no effect)) | 0 (Herbicidal ratio of 5% or lower (almost no effect)) | K: Lolium multiflorum Lam., herbicidal effect grade (Lolium multiflorum Lam.): 1 (Herbicidal ratio of 5% or higher and lower than 20%); R: Veronica persica, herbicidal effect grade (Veronica persica): 0 (Herbicidal ratio of 5% or lower (almost no effect)) |
